Patent publication US11845726B2
Values joined by “and” are separate entries in the source; they are usually repeats but may differ in a detail not shown here. Identical values can stand only once. “Also recorded” adds a separate entry of the source.

Columns and labels:
[1] = target: T1, 5-HT1A receptor (Homo sapiens, UniProt P08908); assay: cAMP-Glo assay of 5-HT1A receptor modulation in +5-HT1A and -5-HT1A CHO-K1 cells; assay type: cell-based; conditions: for cAMP levels / 5-HT1A receptor modulation: forskolin-stimulated +5-HT1A vs -5-HT1A cells
T1 construct: host or cells: CHO-K1 co-expressing Ga15
T1 sequence (P08908 1-422): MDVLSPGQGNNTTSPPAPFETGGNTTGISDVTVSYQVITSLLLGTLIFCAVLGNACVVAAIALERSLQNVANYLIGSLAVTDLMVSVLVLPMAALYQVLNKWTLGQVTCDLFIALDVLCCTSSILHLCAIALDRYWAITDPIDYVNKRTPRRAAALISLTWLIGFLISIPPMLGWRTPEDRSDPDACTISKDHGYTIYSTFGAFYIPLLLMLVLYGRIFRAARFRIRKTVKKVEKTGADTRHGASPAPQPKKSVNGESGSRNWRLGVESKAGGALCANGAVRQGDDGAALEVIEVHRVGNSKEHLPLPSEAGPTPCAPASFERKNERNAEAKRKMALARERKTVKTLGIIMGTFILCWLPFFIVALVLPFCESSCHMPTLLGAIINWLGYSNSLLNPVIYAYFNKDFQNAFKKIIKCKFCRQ

[2] = system: HepG2 cells; assay: PrestoBlue cell viability assay; conditions: 48 hours
[3] = In vitro metabolic stability / psilocin release in AB serum; assay type: in vitro ADME, human
Source text: A fundamental evaluation in drug development is the assessment of absorption, distribution, metabolism, excretion, and pharmacokinetics (ADME/PK) (Eddershaw et al., 2000, Drug Discovery Today 5(9): 409-414). […] Drug stability upon exposure to human liver microsomes and liver S9 cellular fractions is a common in vitro assay to approximate in vivo, liver-based drug metabolism (Richardson et al., 2016 Drug Metabolism Letters 10:83-90). First-pass metabolism is also often approximated in vitro using intestinal microsome and cellular S9 fractions (Hatley et al., 2017, Biopharmaceuticals & Drug Disposition, 38(2):155-160). Further, it is well known that human serum, and particularly circulating serum esterases can contribute to systemic drug metabolism (Williams, F M 1987, Pharmacology and Therapeutics, 34:99-109). Many pharmacological agents are classified as prodrugs, as they undergo metabolic transformation in vivo upon administration to release the active drug compound into the systemic compartment (Zawilska J B, et al. 2013, Pharmacological Reports, 65:1-14). Psilocybin, a serotonergic psychedelic agent, is well known prodrug that is metabolized into the psychoactive product, psilocin (Dinis-Oliveira, R J 2017, Drug Metabolism Reviews, 49(1):84-91). […] Supernatants were analyzed for the presence of candidate prodrugs (parent molecule) and psilocin (the predicted metabolite) using Orbitrap LC-MS (Thermo Scientific) using previously described methods (Menéndez-Perdomo et al., 2021, J. Mass Spectrom., 56: e4683). […] Assay concentrations (μM) of both parent ‘prodrug’ molecule and psilocin metabolite, as quantified through LC-MS using routine standard curve procedures, were plotted as functions of assay time (minutes). The metabolism rate (T1/2) was determined from the metabolism curve plot using the one phase decay feature of GraphPad PRISM software (Version 9.2.0). The quantity of parent prodrug at time zero was set as 100%. […]

[4] = target: T2, 5-HT2A receptor (Mus musculus, UniProt P35363); assay: Drug-induced Head Twitch Response (HTR); assay type: in vivo, mice; conditions: 1 mg/kg i.p., 15-to-30-minute window after administration
T2 construct: tissue Charles River; host or cells: living C57BL/6-Elite mice (neuronal receptor)

[5] = target: 5-HT2A receptor (Homo sapiens, UniProt P28223); assay: [3H]ketanserin competition binding assay (SPA); conditions: for 5-HT2A competition binding: control ligands, [3H]ketanserin competition
[6] = Mouse pharmacokinetic (PK) evaluation of drug metabolism to psilocin; conditions: for administered compound in plasma after oral dosing: any dose
[7] = in vitro; assay type: in vitro ADME, human; conditions: for half-life: human
Source text: A fundamental evaluation in drug development is the assessment of absorption, distribution, metabolism, excretion, and pharmacokinetics (ADME/PK) (Eddershaw et al., 2000, Drug Discovery Today 5(9): 409-414). […] Drug stability upon exposure to human liver microsomes and liver S9 cellular fractions is a common in vitro assay to approximate in vivo, liver-based drug metabolism (Richardson et al., 2016 Drug Metabolism Letters 10:83-90). First-pass metabolism is also often approximated in vitro using intestinal microsome and cellular S9 fractions (Hatley et al., 2017, Biopharmaceuticals & Drug Disposition, 38(2):155-160). Further, it is well known that human serum, and particularly circulating serum esterases can contribute to systemic drug metabolism (Williams, F M 1987, Pharmacology and Therapeutics, 34:99-109). Many pharmacological agents are classified as prodrugs, as they undergo metabolic transformation in vivo upon administration to release the active drug compound into the systemic compartment (Zawilska J B, et al. 2013, Pharmacological Reports, 65:1-14). Psilocybin, a serotonergic psychedelic agent, is well known prodrug that is metabolized into the psychoactive product, psilocin (Dinis-Oliveira, R J 2017, Drug Metabolism Reviews, 49(1):84-91). To evaluate the capacity of test molecules to similarly serve as prodrugs of psilocin, time-dependent, metabolic stability assays using human AB serum, human intestinal microsomes (HIM), human intestinal S9 fractions (HIS9), human liver microsomes (HLM), human liver S9 fractions (HLS9), human alkaline phosphatase, and porcine esterase were performed. […] Liquid chromatography coupled mass spectrometry (LC-MS) was employed to track the conversion of the test molecules into psilocin. All intestinal and liver fractions and NADPH RapidStart reagent was purchased from Sekisui/XenoTech. Human AB serum was purchased from Sigma. For intestine and liver metabolism assays, 2.5 μM candidate compounds were incubated in 400 μg/ml of each cellular fraction (HLM, HLS9, HIM, or HIS9) in 50 mM potassium phosphate buffer (pH 7.4) containing 3 mM MgCl2 and 1 mM EDTA supplemented with NADPH RapidStart at 37° C. Samples were taken at the start of the assay, and at every 20 minutes for 2 hours. Time-point samples were precipitated with 1:1 volume of acetonitrile to quench the reaction before centrifugation at 4000×g for 20 minutes. Supernatants were analyzed for the presence of candidate prodrugs (parent molecule) and psilocin (the predicted metabolite) using Orbitrap LC-MS (Thermo Scientific) using previously described methods (Menéndez-Perdomo et al., 2021, J. Mass Spectrom., 56: e4683). The serum assays were carried out in 10% human AB serum in 50 mM potassium phosphate buffer (pH 7.4) containing 3 mM MgCl2 and 1 mM EDTA. Bovine alkaline phosphatase assays were carried out using one unit of purified enzyme in 50 mM potassium phosphate buffer (pH 7.4) containing 3 mM MgCl2 and 1 mM EDTA. Porcine esterase assays were carried out using one unit of purified enzyme in 50 mM potassium phosphate buffer (pH 7.4) containing 3 mM MgCl2 and 1 mM EDTA. Assay concentrations (μM) of both parent ‘prodrug’ molecule and psilocin metabolite, as quantified through LC-MS using routine standard curve procedures, were plotted as functions of assay time (minutes). The metabolism rate (T1/2) was determined from the metabolism curve plot using the one phase decay feature of GraphPad PRISM software (Version 9.2.0). The quantity of parent prodrug at time zero was set as 100%.
Positive controls were first tested to ensure that assays were functioning properly.

[8] = system: GABAA; assay type: cell-based
[9] = Stability in enzyme-free control buffer; assay type: in vitro ADME; conditions: assay buffer without enzymes
Source text: A fundamental evaluation in drug development is the assessment of absorption, distribution, metabolism, excretion, and pharmacokinetics (ADME/PK) (Eddershaw et al., 2000, Drug Discovery Today 5(9): 409-414). […] Drug stability upon exposure to human liver microsomes and liver S9 cellular fractions is a common in vitro assay to approximate in vivo, liver-based drug metabolism (Richardson et al., 2016 Drug Metabolism Letters 10:83-90). First-pass metabolism is also often approximated in vitro using intestinal microsome and cellular S9 fractions (Hatley et al., 2017, Biopharmaceuticals & Drug Disposition, 38(2):155-160). […] Supernatants were analyzed for the presence of candidate prodrugs (parent molecule) and psilocin (the predicted metabolite) using Orbitrap LC-MS (Thermo Scientific) using previously described methods (Menéndez-Perdomo et al., 2021, J. Mass Spectrom., 56: e4683). […] Assay concentrations (μM) of both parent ‘prodrug’ molecule and psilocin metabolite, as quantified through LC-MS using routine standard curve procedures, were plotted as functions of assay time (minutes). The metabolism rate (T1/2) was determined from the metabolism curve plot using the one phase decay feature of GraphPad PRISM software (Version 9.2.0). The quantity of parent prodrug at time zero was set as 100%.

[10] = 1 mg/kg i.v., 0.25 h, Mean ± SD
[11] = 1 mg/kg i.v., 1 h, individual mice
[12] = 1 mg/kg i.v., 2 h, individual mice
[13] = 1 mg/kg i.v., 4 h, individual mice
[14] = 1 mg/kg i.v., 6 h, individual mice
[15] = 1 mg/kg i.v., 8 h, individual mice
[16] = 3 mg/kg oral, 24 h, individual mice

5-HT2A receptor (Homo sapiens, UniProt P28223), sequence (P28223 whole entry): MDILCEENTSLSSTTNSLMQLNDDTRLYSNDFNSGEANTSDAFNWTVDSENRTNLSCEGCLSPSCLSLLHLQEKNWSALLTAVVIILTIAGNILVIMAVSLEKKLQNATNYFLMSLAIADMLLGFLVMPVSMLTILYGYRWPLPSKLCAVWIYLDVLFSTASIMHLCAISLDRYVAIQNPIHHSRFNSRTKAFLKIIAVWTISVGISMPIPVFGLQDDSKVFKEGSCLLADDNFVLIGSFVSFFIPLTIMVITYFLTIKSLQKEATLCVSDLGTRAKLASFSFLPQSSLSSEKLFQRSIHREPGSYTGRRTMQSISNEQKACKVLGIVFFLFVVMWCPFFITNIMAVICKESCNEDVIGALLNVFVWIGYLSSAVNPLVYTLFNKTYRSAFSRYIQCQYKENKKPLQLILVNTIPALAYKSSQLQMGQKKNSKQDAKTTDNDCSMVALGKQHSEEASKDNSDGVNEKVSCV
T2 sequence (P35363 whole entry): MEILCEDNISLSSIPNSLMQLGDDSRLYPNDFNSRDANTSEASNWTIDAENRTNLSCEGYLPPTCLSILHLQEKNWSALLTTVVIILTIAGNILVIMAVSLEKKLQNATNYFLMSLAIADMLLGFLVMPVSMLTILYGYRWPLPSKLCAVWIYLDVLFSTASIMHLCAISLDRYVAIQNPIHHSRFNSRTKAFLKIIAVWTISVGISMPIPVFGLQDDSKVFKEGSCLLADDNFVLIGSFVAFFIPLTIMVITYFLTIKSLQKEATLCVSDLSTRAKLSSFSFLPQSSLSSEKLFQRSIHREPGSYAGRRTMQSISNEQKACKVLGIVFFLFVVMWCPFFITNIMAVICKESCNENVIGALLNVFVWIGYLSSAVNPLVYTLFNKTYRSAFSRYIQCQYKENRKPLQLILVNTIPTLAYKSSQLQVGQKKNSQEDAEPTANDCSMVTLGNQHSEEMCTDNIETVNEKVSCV

SMILES	CD50 (cytotoxicity) [2] [µM]	stability / conversion to psilocin [3]	Head Twitch Response [4]	Ki [5] [nM]	stability / conversion to psilocin ([7]; HLM)	stability / conversion to psilocin ([7]; HLS9)	cAMP levels / 5-HT1A receptor modulation [1]	administered compound in plasma after i.v. dosing ([6]; 1 mg/kg i.v.)	Plasma concentration of the administered compound itself ([6]; 1 mg/kg i.v., 5 min, Mean ± SD) [ng/mL]	Plasma concentration of the administered compound itself [6, 10] [ng/mL]	Plasma concentration of the administered compound itself ([6]; 1 mg/kg i.v., 0.5 h, Mean ± SD)	Plasma concentration of the administered compound itself ([6]; 1 mg/kg i.v., 1 h, Mean ± SD)	Plasma concentration of the administered compound itself [6, 11]	Plasma concentration of the administered compound itself [6, 12]	Plasma concentration of the administered compound itself [6, 13]	Plasma concentration of the administered compound itself [6, 14]	Plasma concentration of the administered compound itself [6, 15]	Plasma concentration of psilocin [6, 16]	administered compound in plasma after oral dosing [6]	5-HT2A competition binding [5]	further results
CN(C)CCc1c[nH]c2cccc(OC(=O)OCc3ccccc3)c12 [B(II)]	65.9	failed completely to dissociate	elicit head twitching	277	did not readily dissociate to psilocin	did not readily dissociate to psilocin	–	–	–	–	–	–	–	–	–	–	–	–	–	–	EC50 at 5-HT1A ([1]; forskolin-stimulated +5-HT1A cells): neither molecule engaged 5-HT1A with sufficient potency to calculate an EC50 value; time administered compound resides in plasma post-dosing ([6]; 10 mg/kg oral): up to 4 hours; half-life ([7]; microsomes, pH 7.4): 3.63 h; half-life ([7]; s9, pH 7.4): 8.95 h
CN(C)CCc1c[nH]c2cccc(OC(=O)SCc3ccccc3)c12 [E(VI)]	74.5	quickly converted to psilocin; also recorded: nearly completely disappears upon in vitro exposure to AB serum	Elevated incidences of HTR; also recorded: elevated response was observed in mice treated with E(VI) compared to B(II)	130	quickly converted to psilocin	quickly converted to psilocin	mild receptor modulation at higher ligand concentrations	detectable levels of E(VI)	24.4 ± 30.2	63.3 ± 51.7	7.81 ± 6.17 ng/mL	4.49 (n = 2) ng/mL	3.14 ng/mL and No Peak	0.776 ng/mL and No Peak	BLQ (2×) and No Peak	No Peak (2×) and BLQ	No Peak	No Peak (2×) and BLQ	did not yield any detectable levels of E(VI); also recorded: never detected at any timepoint	–	IC50 ([8]; blocker (BL)): 32200 nM; EC50 ([8]; opener (OP)): > 100000 nM; Plasma concentration of the administered compound itself ([6]; 1 mg/kg i.v., 2 h, Mean ± SD): 0.685 (n = 2) ng/mL; AUC0-tlast of the administered compound ([6]; 1 mg/kg i.v., Mean ± SD): 19.7 ± 15.9 ng·h/mL; AUC0-tlast/Dose of the administered compound ([6]; 1 mg/kg i.v., Mean ± SD): 19.7 ± 15.9 kg·ng·h/mL/mg; AUC0-tlast/Dose of the administered compound ([6]; 1 mg/kg i.v., individual mice): 20.4 kg·ng·h/mL/mg and 35.2 kg·ng·h/mL/mg and 3.40 kg·ng·h/mL/mg; administered compound in plasma ([6]; 1 mg/kg oral): neither B(II) nor E(VI) were detected in plasma; Plasma concentration of psilocin ([6]; 1 mg/kg oral, 8 h, individual mice): BLQ; Plasma concentration of psilocin ([6]; 1 mg/kg oral, 24 h, individual mice): No Peak; Plasma concentration of psilocin ([6]; 10 mg/kg oral, 24 h, individual mice): BLQ
CN(C)CCc1c[nH]c2cccc(O)c12 [psilocin]	–	–	–	–	–	–	reduction in cAMP levels	–	–	–	–	–	–	–	–	–	–	–	–	binding	–
CN(C)CCc1c[nH]c2cccc(OP(=O)(O)O)c12 [psilocybin]	–	stable in serum with no conversion to psilocin	–	–	stable in liver fractions with no conversion to psilocin	stable in liver fractions with no conversion to psilocin	–	only detectable in i.v. administered animals	144 ± 167	13.2 ± 12.5	4.28 (n = 2) ng/mL	1.21 (n = 1) ng/mL	No Peak (2×) and 1.21 ng/mL	No Peak	No Peak	No Peak	No Peak (2×) and 2.54 ng/mL	BLQ	not detectable in orally administered animals at any dose	–	stability [9]: stability of psilocybin was confirmed in assay buffer; Plasma concentration of the administered compound itself ([6]; 1 mg/kg i.v., 5 min, individual mice): 19.7 ng/mL and 76.8 ng/mL and 334 ng/mL; Plasma concentration of the administered compound itself ([6]; 1 mg/kg i.v., 0.25 h, individual mice): 3.32 ng/mL and 8.95 ng/mL and 27.2 ng/mL; Plasma concentration of the administered compound itself ([6]; 1 mg/kg i.v., 0.5 h, individual mice): No Peak and 2.35 ng/mL and 6.21 ng/mL; Plasma concentration of psilocin ([6]; 1.56 mg/kg oral, 24 h, individual mice): BLQ
NCCc1c[nH]c2ccc(O)cc12 [serotonin]	–	–	–	–	–	–	reduction in cAMP levels	–	–	–	–	–	–	–	–	–	–	–	–	–	–
N[C@@H](Cc1c[nH]c2ccccc12)C(=O)O [tryptophan]	–	–	–	–	–	–	no reduction in cellular cAMP levels	–	–	–	–	–	–	–	–	–	–	–	–	no binding	–
